# Entries after “also recorded” stand apart in the source; their conditions may differ.
# Assays:
# [1] = Hydroxyapatite (HA) binding assay, spectroscopic analysis of supernatant; type: physicochemical; conditions: supernatant at 0 hr versus 24 hrs, TSB medium
# Experimental: Solutions containing BP-ciprofloxacin and HA spherules were introduced to wells of 24-well plate. […] Plates were shaken automatically in the spectrometer prior to assessment. Next, plates were left for 24 h/37° C./shaking. After 24 hours, absorbance was measured once again. To assess the relative concentration of the conjugate at 0 hr and 24 hrs, values of absorbance taken in the beginning and at the end of experiment were compared.
# Spectroscopic analysis of 6 and 11 in Tryptic Soy Broth (TSB) microbiological media with the addition of HA spherules: Various conjugate concentrations were introduced to HA powder (spherules) suspended in TSB microbiological medium. Solutions containing BP-ciprofloxacin an HA spherules were introduced to wells of a 24-well plate. […] Plates were shaken automatically in the spectrometer prior to assessment. Next, plates were left for 24 hrs/37° C./shaking. After 24 hrs, absorbance was measured once again. To assess the relative concentration of the conjugate at 0 hr and 24 hrs, values of absorbance taken in the beginning and at the end of experiment were compared. The excitation slit, emission slit, integration time, and increment were optimized based on the concentration of samples.
# [2] = test system: Aggregatibacter actinomycetemcomitans biofilms on titanium implants; assay: Rat jawbone peri-implant osteomyelitis model, first animal experiment; type: in vivo, Sprague-Dawley rats; conditions: conjugate, 0.3 mg/kg ×3 over a week (0.9 mg/kg total)
# [3] = test system: planktonic S. aureus clinical osteomyelitis strains (MSSA and MRSA); assay: MIC by microdilution against planktonic clinical S. aureus strains; type: cell-based, Staphylococcus aureus; conditions: for antimicrobial activity / MIC against planktonic S. aureus (in words): microdilution, 24 h
# Experimental: (§1) Subsequently, the plate was incubated for 24 h/37° C. in a shaker to obtain optimal conditions for microbial growth and to prevent bacteria from forming biofilms. After incubation, the absorbance was measured once again. The following control samples were established: negative control sample one: sterile medium without microbes; negative control sample two: sterile medium without microbes implemented with DMSO (dimethyl sulfoxide, Sigma-Aldritch) to final concentration of 1% (v/v); positive control sample one: medium+microbes with no compound tested; positive control sample two: medium+microbes with no compound tested but implemented with DMSO to final concentration of 1% (v/v). […] To assess relative number of cells, the following calculations were performed. […] Next, the relative number of cells subjected to incubation with tested compounds were counted as follows: […].
# as §1, with “Evaluation of the MIC of tested compounds against planktonic forms of clinical staphylococcal strains analyzed: To assess the impact of parent antibiotic and conjugates on microbial growth, 100 μl of microbial solutions of density 1×10^5 CFU/ml were placed into wells of 96-well test plates together with appropriate concentrations of tested compounds. […] Subsequently,” for “Subsequently,”, “plates were” for “the plate was”, “hrs/37°” for “h/37°”, “Sigma-Aldrich)” for “Sigma-Aldritch)”
# The occurrence of opacification or lack of opacification of media was proof of pathogen growth or lack of growth, respectively. Additionally, bacterial solutions were cultured on the appropriate stable medium. Growth or lack of growth of bacterial colonies together with above-mentioned results from liquid cultures served as confirmation of results obtained spectrophotometrically.
# S. aureus 6538 = assay: Preventative assay, HA spherules pretreated then inoculated with S. aureus; type: cell-based, Staphylococcus aureus
# Experimental: Preventative ability of BP-ciprofloxacin conjugate to inhibit S. aureus 6538 adherence to HA spherules: Various BP-ciprofloxacin concentrations were introduced to HA powder (spherules) suspended in TSB microbiological medium. Solutions containing conjugate and HA spherules were introduced to wells of 24-well plates. Final concentrations of powder were 10 mg/1 mL, while final concentrations of the conjugate were 0.12-250 mg/L. Suspensions were left for 24 h/37° C./shaking. After 24 h, suspensions were removed from the wells and impulse-centrifuged to precipitate HA powder. Next, supernatant was very gently discarded and a fresh 1 mL of S. aureus of density 10^5 cfu/mL was introduced to the HA spherules. Subsequently, this solution was shaken, absorbance was measured using 580 nm wavelength and left for 24 h/37° C./shaking. After incubation absorbance was measured again and values from 0 hr and 24 hrs were compared to assess reduction of bacterial growth with regard to control sample one (bacterial suspension but no spherules) and control sample two (bacterial suspension+spherules but with no conjugate added). Additionally, solutions were impulse-centrifuged, supernatant was gently discarded, while bacteria-containing HA spherules were culture plated as before and quantitatively assessed. […]
Structure (SMILES),adsorption to hydroxyapatite (HA) [1],adsorption to hydroxyapatite (HA) ([1]; listed as BCC),adsorption to hydroxyapatite (HA) ([1]; listed as BP-ciprofloxacin),bacterial killing [2] [%],recovery of bacteria (in words) [2],recovery of bacteria (in words) ([2]; listed as BP-ciprofloxacin),MIC compared with mean bactericidal concentration (MBC) ([3]; AST data),antimicrobial activity / MIC against planktonic S. aureus (in words) [3],antimicrobial activity / MIC against planktonic S. aureus (in words) ([3]; listed as BCC),antimicrobial activity / MIC against planktonic S. aureus (in words) ([3]; listed as BP-ciprofloxacin),concentration giving the only significant reduction (S. aureus 6538) [µg/mL]
"O=C(O)c1cn(C2CC2)c2cc(N3CCN(C(=O)Oc4ccc(CC(P(=O)(O)O)P(=O)(O)O)cc4)CC3)c(F)cc2c1=O [Compound 6, 1-cyclopropyl-7-(4-((4-(2,2-diphosphonoethyl)phenoxy)carbonyl)piperazin-1-yl)-6-fluoro-4-oxo-1,4-dihydroquinoline-3-carboxylic acid]",significant adsorption and retention of the conjugate by HA; also recorded: effective adsorption and retention to HA spherules,taken up by the HA beads; also recorded: confirms adsorption of conjugate to HA,significant adsorption and retention of the conjugate by HA,100,no recoverable bacteria,no recovery of Aa; also recorded: no recoverable bacteria,equivalent to their mean bactericidal concentrations,effective bactericidal activity,retains significant bactericidal activity,slightly greater concentrations of conjugate required to reach MIC than ciprofloxacin alone,–
"O=C(O)c1cn(C2CC2)c2cc(N3CCNCC3)c(F)cc2c1=O [ciprofloxacin, reference compound]",–,–,–,–,–,–,–,–,–,–,400
